The results in this text go back to patent US20260355196A1, “INHIBITORS AND DEGRADERS OF PIP4K PROTEIN” (Larkspur Biosciences, Inc., priority 2023, published 2026).

Each structure is given as a SMILES string. Where only a bound is given, the exact number is not on record here.

The target of this assay is T1, PIP4K2C (Homo sapiens, UniProt Q8TBX8).
T1 sequence (Q8TBX8 1-421): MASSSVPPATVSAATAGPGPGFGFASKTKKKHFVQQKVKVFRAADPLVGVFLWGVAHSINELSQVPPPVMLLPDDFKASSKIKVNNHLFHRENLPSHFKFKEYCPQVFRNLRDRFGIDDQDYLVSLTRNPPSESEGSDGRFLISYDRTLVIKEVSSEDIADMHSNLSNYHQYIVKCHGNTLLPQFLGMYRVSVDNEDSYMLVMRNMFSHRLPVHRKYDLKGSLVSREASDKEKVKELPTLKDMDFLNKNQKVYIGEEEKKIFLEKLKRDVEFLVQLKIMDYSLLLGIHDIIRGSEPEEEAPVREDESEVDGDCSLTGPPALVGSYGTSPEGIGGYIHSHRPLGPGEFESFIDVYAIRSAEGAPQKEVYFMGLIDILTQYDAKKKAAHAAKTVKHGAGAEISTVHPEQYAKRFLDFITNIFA
The assay is described as follows: Enzyme Binding Assay (KINOMEscan): active site-directed competition binding to an immobilized ligand. Further details: purchased Eurofins DiscoverX, San Diego, CA 87-0007-1094. As to conditions: 11-point dose response, duplicate, top concentration 5 micromolar; read-out: Pip4k2c Kd: IC50. An outline of the steps: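 Active site-directed competition binding against an immobilized ligand. 11-point dose-response in duplicate, top concentration 5 micromolar; IC50 from a Hill equation fitted by the Levenberg-Marquardt algorithm.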
Consider `CNC(=O)[C@H]1CC[C@H](Nc2ncc(Cl)c(-c3cnn(C4CC4)c3)n2)CC1` [Compound 117, trans-(1r,4r)-4-((5-chloro-4-(1-cyclopropyl-1H-pyrazol-4-yl)pyrimidin-2-yl)amino)-N-methylcyclohexane-1-carboxamide], for which the IC50 was under 0.5 µM.

For the compound `CNC(=O)[C@H]1CC[C@H](Nc2ncc(Cl)c(-c3cnn(C4CCCCC4)c3)n2)CC1` [Compound 118, trans-(1r,4r)-4-((5-chloro-4-(1-cyclohexyl-1H-pyrazol-4-yl)pyrimidin-2-yl)amino)-N-methylcyclohexane-1-carboxamide], the IC50 was under 0.5 µM.

With `CNC(=O)[C@H]1C[C@H](Nc2ncc(Cl)c(-c3cnn(-c4ccc(=O)[nH]c4)c3)n2)C1` [Compound 119, trans-(1r,3r)-3-((5-chloro-4-(1-(6-oxo-1,6-dihydropyridin-3-yl)-1H-pyrazol-4-yl)pyrimidin-2-yl)amino)-N-methylcyclobutane-1-carboxamide], the IC50 was under 0.5 µM.

For the compound `CC(=O)N1CCC(Nc2ncc(Cl)c(-c3cnn(-c4cc[nH]c(=O)c4)c3)n2)CC1` [Compound 120, 4-(4-(2-((1-acetylpiperidin-4-yl)amino)-5-chloropyrimidin-4-yl)-1H-pyrazol-1-yl)pyridin-2(1H)-one], the IC50 was under 0.5 µM.

As for `CC(=O)N[C@H]1CC[C@H](Nc2ncc(Cl)c(-c3cnn(-c4ccc(F)cc4)c3)n2)CC1` [Compound 121, trans-N-((1r,4r)-4-((5-chloro-4-(1-(4-fluorophenyl)-1H-pyrazol-4-yl)pyrimidin-2-yl)amino)cyclohexyl)acetamide], the IC50 is under 0.5 µM.

`CNC(=O)[C@H]1C[C@@H](Nc2ncc(Cl)c(-c3cnn(-c4ccc(F)cc4)c3)n2)C1` [Compound 122, cis-(1s,3s)-3-((5-chloro-4-(1-(4-fluorophenyl)-1H-pyrazol-4-yl)pyrimidin-2-yl)amino)-N-methylcyclobutane-1-carboxamide]: the IC50 is under 0.5 µM.

Turning to `CNC(=O)[C@H]1C[C@H](Nc2ncc(Cl)c(-c3cnn(-c4ccc(F)cc4)c3)n2)C1` [Compound 123, trans-(1r,3r)-3-((5-chloro-4-(1-(4-fluorophenyl)-1H-pyrazol-4-yl)pyrimidin-2-yl)amino)-N-methylcyclobutane-1-carboxamide], the IC50 lay within 0.5 to 1 µM.

For `CC(=O)N[C@H]1CC[C@H](Nc2ncc(Cl)c(C3CCCN(C(=O)c4ccc(F)cc4)C3)n2)CC1` (stereo partly drawn) [Compound 124, trans-N-(4-((5-chloro-4-(1-(4-fluorobenzoyl)piperidin-3-yl)pyrimidin-2-yl)amino)cyclohexyl)acetamide], the IC50 was under 0.5 µM.

For `CC(=O)N1CCC(Nc2ncc(Cl)c(C3CCCN(C(=O)c4ccc(F)cc4)C3)n2)CC1` (centres unmarked) [Compound 125, 1-(4-((5-chloro-4-(1-(4-fluorobenzoyl)piperidin-3-yl)pyrimidin-2-yl)amino)piperidin-1-yl)ethan-1-one], the IC50 is 1 to 5 µM.

`CC(=O)N[C@H]1CC[C@H](Nc2ncc(Cl)c(C3CCN(C(=O)c4ccc(F)cc4)C3)n2)CC1` (stereo partly drawn) [Compound 126, trans-N-(4-((5-chloro-4-(1-(4-fluorobenzoyl)pyrrolidin-3-yl)pyrimidin-2-yl)amino)cyclohexyl)acetamide]: the IC50 was 1 to 5 µM.

As to `CC(=O)N1CCC(Nc2ncc(Cl)c(C3CCN(C(=O)c4ccc(F)cc4)C3)n2)CC1` (centres unmarked) [Compound 127, 1-(4-((5-chloro-4-(1-(4-fluorobenzoyl)pyrrolidin-3-yl)pyrimidin-2-yl)amino)piperidin-1-yl)ethan-1-one], the IC50 was in the range of 0.5 to 1 µM.

Take `CC(=O)N1CCC[C@H](Nc2ncc(Cl)c(-c3cccc(-c4ccc(F)cc4)c3)n2)C1` [Compound 128, (S)-1-(3-((5-chloro-4-(4′-fluoro-[1,1′-biphenyl]-3-yl)pyrimidin-2-yl)amino)piperidin-1-yl)ethan-1-one]: the IC50 is under 0.5 µM.

Turning to `CC(=O)N1CCC[C@H](Nc2ncc(Cl)c(-c3cccc(-n4ccccc4=O)c3)n2)C1` [Compound 129, (S)-1-(3-(2-((1-acetylpiperidin-3-yl)amino)-5-chloropyrimidin-4-yl)phenyl)pyridin-2(1H)-one], the concentration for half-maximal inhibition (IC50) was under 0.5 µM.

Turning to `CC(=O)N[C@H]1CC[C@@H](Nc2ncc(Cl)c(-c3cccc(-c4ccc(F)cc4)n3)n2)CC1` [Compound 130, cis-N-((1s,4s)-4-((5-chloro-4-(6-(4-fluorophenyl)pyridin-2-yl)pyrimidin-2-yl)amino)cyclohexyl)acetamide], the IC50 is under 0.5 µM.

Consider `CNC(=O)[C@H]1CC[C@@H](Nc2ncc(Cl)c(-c3cccc(-c4ccc(F)cc4)n3)n2)CC1` [Compound 131, cis-(1s,4s)-4-((5-chloro-4-(6-(4-fluorophenyl)pyridin-2-yl)pyrimidin-2-yl)amino)-N-methylcyclohexane-1-carboxamide], for which the IC50 is under 0.5 µM.

Take `CC(=O)N1CCC(Nc2ncc(Cl)c(-c3cc(C4CC4)[nH]n3)n2)CC1` [Compound 132, 1-(4-((5-chloro-4-(5-cyclopropyl-1H-pyrazol-3-yl)pyrimidin-2-yl)amino)piperidin-1-yl)ethan-1-one]: the IC50 was under 0.5 µM.

For `CNC(=O)[C@H]1C[C@H](Nc2ncc(Cl)c(-c3cnn(-c4cc[nH]c(=O)c4)c3)n2)C1` [Compound 133, trans-(1r,3r)-3-((5-chloro-4-(1-(2-oxo-1,2-dihydropyridin-4-yl)-1H-pyrazol-4-yl)pyrimidin-2-yl)amino)-N-methylcyclobutane-1-carboxamide], the IC50 lay in the range of 0.5 to 1 µM.

As for `CNC(=O)[C@H]1CC[C@H](Nc2ncc(Cl)c(-c3cnn(-c4ccc(F)cc4)c3)n2)CC1` [Compound 134, trans-(1r,4r)-4-((5-chloro-4-(1-(4-fluorophenyl)-1H-pyrazol-4-yl)pyrimidin-2-yl)amino)-N-methylcyclohexane-1-carboxamide], the IC50 was under 0.5 µM.

Take `CC(=O)N1CCC(Nc2ncc(Cl)c(-c3cccc(-c4ccc[nH]c4=O)c3)n2)CC1` [Compound 137, 3-(3-(2-((1-acetylpiperidin-4-yl)amino)-5-chloropyrimidin-4-yl)phenyl)pyridin-2(1H)-one]: the IC50 was under 0.5 µM.

Take `CNC(=O)[C@H]1CC[C@@H](Nc2ncc(Cl)c(-c3cccc(-c4ccc[nH]c4=O)c3)n2)CC1` [Compound 138, cis-(1s,4s)-4-((5-chloro-4-(3-(2-oxo-1,2-dihydropyridin-3-yl)phenyl)pyrimidin-2-yl)amino)-N-methylcyclohexane-1-carboxamide]: the half-inhibitory concentration (IC50) was under 0.5 µM.

Consider `CNC(=O)[C@H]1C[C@H](Nc2ncc(Cl)c(-c3cccc(-c4ccc[nH]c4=O)c3)n2)C1` [Compound 139, trans-(1r,3r)-3-((5-chloro-4-(3-(2-oxo-1,2-dihydropyridin-3-yl)phenyl)pyrimidin-2-yl)amino)-N-methylcyclobutane-1-carboxamide], for which the IC50 is under 0.5 µM.

As to `CNC(=O)[C@H]1C[C@H](Nc2ncc(Cl)c(-c3cccc(-c4ccc(F)cc4)n3)n2)C1` [Compound 140, trans-(1r,3r)-3-((5-chloro-4-(6-(4-fluorophenyl)pyridin-2-yl)pyrimidin-2-yl)amino)-N-methylcyclobutane-1-carboxamide], the IC50 is under 0.5 µM.

For the compound `CC(=O)N1CCC[C@H](Nc2ncc(Cl)c(-c3ccnc(-c4ccc(F)cc4)c3)n2)C1` [Compound 141, (S)-1-(3-((5-chloro-4-(2-(4-fluorophenyl)pyridin-4-yl)pyrimidin-2-yl)amino)piperidin-1-yl)ethan-1-one], the concentration for half-maximal inhibition (IC50) is under 0.5 µM.

With `CC(=O)N[C@H]1CC[C@H](Nc2ncc(Cl)c(-c3ccnc(-c4ccc(F)cc4)c3)n2)CC1` [Compound 142, trans-N-((1r,4r)-4-((5-chloro-4-(2-(4-fluorophenyl)pyridin-4-yl)pyrimidin-2-yl)amino)cyclohexyl)acetamide], the IC50 was under 0.5 µM.

`CC(=O)N1CCC[C@H](Nc2ncc(Cl)c(-c3ccc(=O)n(-c4ccc(F)cc4)c3)n2)C1` [Compound 143, (S)-5-(2-((1-acetylpiperidin-3-yl)amino)-5-chloropyrimidin-4-yl)-1-(4-fluorophenyl)pyridin-2(1H)-one]: the half-inhibitory concentration (IC50) lay within 0.5 to 1 µM.

For the compound `CNC(=O)[C@H]1CC[C@H](Nc2ncc(Cl)c(-c3cc(C4CC4)[nH]n3)n2)CC1` [Compound 144, trans-(1r,4r)-4-((5-chloro-4-(5-cyclopropyl-1H-pyrazol-3-yl)pyrimidin-2-yl)amino)-N-methylcyclohexane-1-carboxamide], the IC50 was 1 to 5 µM.

Consider `CC(=O)N[C@H]1CC[C@H](Nc2ncc(Cl)c(-c3cnn(-c4ccc(=O)[nH]c4)c3)n2)CC1` [Compound 145, trans-N-((1r,4r)-4-((5-chloro-4-(1-(6-oxo-1,6-dihydropyridin-3-yl)-1H-pyrazol-4-yl)pyrimidin-2-yl)amino)cyclohexyl)acetamide], for which the IC50 is under 0.5 µM.

Consider `CNC(=O)[C@H]1CC[C@H](Nc2ncc(Cl)c(-c3cnn(-c4ccc(=O)[nH]c4)c3)n2)CC1` [Compound 146, trans-(1r,4r)-4-((5-chloro-4-(1-(6-oxo-1,6-dihydropyridin-3-yl)-1H-pyrazol-4-yl)pyrimidin-2-yl)amino)-N-methylcyclohexane-1-carboxamide], for which the IC50 was under 0.5 µM.

Turning to `CC(=O)N[C@H]1CC[C@H](Nc2ncc(Cl)c(-c3cnn(-c4cc[nH]c(=O)c4)c3)n2)CC1` [Compound 147, trans-N-((1r,4r)-4-((5-chloro-4-(1-(2-oxo-1,2-dihydropyridin-4-yl)-1H-pyrazol-4-yl)pyrimidin-2-yl)amino)cyclohexyl)acetamide], the IC50 is under 0.5 µM.
